Data taken from US20260355192A1, “PROPHYLACTIC OR THERAPEUTIC AGENT FOR PERIOSTIN-MEDIATED DISEASE AND PRURITUS ASSOCIATED THEREWITH” (SAGA UNIVERSITY, priority 2022, published 2026).

Assays:
[1] = system: scratching behaviors in FADS mice; test: Scratching behaviors in FADS mice upon single systemic administration of αvβ3 integrin inhibitors; type: in vivo, mouse (FADS, Nestin-cre/Ikk2ff)
Excerpt: Nestin-cre transgenic mice were crossed with IKK2^ff mice to prepare Nestin-cre/Ikk2^ff mice specifically lacking IKK2 in their facial skin fibroblasts (Nunomura S, et al. J Invest Dermatol. 139:1274-1283, 2019). These mice inevitably develop atopic dermatitis-like rash limited to the face and intense itchy symptoms, and were therefore designated as Facial Atopic Dermatitis with Scratching (FADS) mice. […] For evaluation of the prophylactic or therapeutic agent of the present invention, FADS mice at 3 to 4 weeks of age or older were used because of showing spontaneous scratching behaviors. It should be noted that in this Example section, the above compound of formula (I) (more particularly “CP4715”) was used as the prophylactic or therapeutic agent of the present invention.
FADS mice were acclimated for 20 minutes to the environment of a recording cage, and then recorded with a video camera. The recorded videos were replayed, and scratching behaviors were counted assuming that hind paw scratching to the face and the subsequent movement of toe licking or paw lowering to the ground were regarded as one cycle of scratching behavior.
Prior to the administration of the above αvβ3 integrin inhibitors, FADS mice were recorded for 60 minutes with a video camera and then allowed to rest for 15 minutes. The compounds except for GLPG-0187 were each dissolved at 89.5 mM in a diluent (physiological saline containing 50% DMSO and 89.5 mM HCL), from which an amount corresponding to 53.7 μmol/kg per mouse was then taken and diluted with 0.3 mL of PBS, and then administered intraperitoneally. […] Mice administered with 0.3 mL of PBS containing an equal amount of the diluent as calculated based on the body weight were used as a control group.
The mice were recorded for 60 minutes with a video camera immediately after administration of the above αvβ3 integrin inhibitors. The number of scratchings before administration was used as a baseline, and % change from the baseline after administration was calculated for each compound. For statistical analysis, paired t-test was used. A P-value of less than 0.05 was considered to be statistically significant. The effect of an inhibitor whose mean change from the baseline was −65% or more at a P-value of less than 0.01 was expressed as “++”; the effect of an inhibitor whose mean change from the baseline was −60% or less at a P-value of less than 0.05 was expressed as “+”; and the effect of an inhibitor whose mean change from the baseline was −60% or less at a P-value of 0.05 or higher was expressed as “−.”

integrin αvβ3 = biological target: T1, integrin αvβ3 (Homo sapiens, UniProt P05106+P06756); test: Inhibition of periostin-dependent adhesion of SW480 cells expressing integrin αvβ3; type: cell-based; settings: immobilized recombinant human periostin, FIG. 6
T1 construct: SW480 cells, a human colon cancer cell line not expressing integrin β3; expressed in transfected cells; host or cells: SW480 cells (human colon cancer) stably expressing human integrin β3
Procedure: For use in cell adhesion experiments, SW480 cells, a human colon cancer cell line not expressing integrin β3, were genetically engineered to stably express human integrin β3 (Nanri Y, et al. Am J Respir Cell Mol Biol. 62:204-216, 2020). The compounds shown in Table 1 were examined for their inhibitory activity against adhesion between integrin αvβ3 and periostin according to the following procedures. First, a 96-well plate was treated with 10 μg/mL recombinant human periostin (Bio-Techne) at 4 °C for 16 hours to immobilize periostin. The SW480 cells expressing integrin αvβ3 (5×10^4 cells) were reacted at room temperature for 15 minutes with the above compounds at 0.001, 0.01, 0.1 and 1 μM in serum-free DMEM (Dulbecco's Modified Eagle Medium) containing 0.5% bovine serum albumin and 0.25 mM MnCl2. A group receiving no compound was used as a control. The reacted cell suspensions were added to separate wells of the above human periostin-immobilized plate, and the plate was centrifuged at 10×g for 5 minutes and then cultured at 37 °C for 60 minutes. Then, after the adhered cells were washed to remove unbound cells, the adhered cells were fixed with 1% formaldehyde and stained with 0.5% crystal violet. The fixed and stained cells were solubilized with 0.2% Triton X-100 and measured for absorbance at 595 nm. The absorbance of the control (i.e., the group receiving no compound) was set to 0% inhibition. […] Cell adhesion in this test system is periostin-dependent, and a compound inhibiting this cell adhesion can be referred to as a periostin receptor antagonist.

[2] = system: glycoprotein (GP) IIb/IIIa receptor; settings: cited from earlier work

T1 sequence (P06756 31-889 limits assumed): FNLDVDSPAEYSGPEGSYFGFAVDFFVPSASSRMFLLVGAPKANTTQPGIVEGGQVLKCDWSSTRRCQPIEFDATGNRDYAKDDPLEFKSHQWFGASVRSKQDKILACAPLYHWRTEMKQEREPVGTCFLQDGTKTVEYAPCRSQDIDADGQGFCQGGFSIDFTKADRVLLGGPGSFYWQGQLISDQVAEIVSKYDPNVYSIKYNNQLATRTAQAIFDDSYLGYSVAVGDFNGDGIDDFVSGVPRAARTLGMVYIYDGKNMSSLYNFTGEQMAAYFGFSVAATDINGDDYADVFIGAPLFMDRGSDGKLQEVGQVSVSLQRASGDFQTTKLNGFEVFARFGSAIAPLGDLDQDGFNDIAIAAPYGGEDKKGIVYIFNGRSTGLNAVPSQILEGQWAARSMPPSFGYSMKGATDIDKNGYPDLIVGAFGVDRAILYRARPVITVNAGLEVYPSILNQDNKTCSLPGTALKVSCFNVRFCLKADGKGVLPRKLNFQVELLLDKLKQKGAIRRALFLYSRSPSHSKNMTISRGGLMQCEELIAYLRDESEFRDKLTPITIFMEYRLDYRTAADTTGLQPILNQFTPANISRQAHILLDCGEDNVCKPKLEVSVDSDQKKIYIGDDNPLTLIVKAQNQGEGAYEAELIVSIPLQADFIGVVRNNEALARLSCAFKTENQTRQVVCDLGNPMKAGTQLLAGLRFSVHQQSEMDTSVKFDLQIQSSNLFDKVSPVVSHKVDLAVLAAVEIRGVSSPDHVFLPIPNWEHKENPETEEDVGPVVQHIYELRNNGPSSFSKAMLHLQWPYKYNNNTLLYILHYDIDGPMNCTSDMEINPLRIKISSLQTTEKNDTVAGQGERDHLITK
T1 sequence (P06756 891-1048 partner limits assumed): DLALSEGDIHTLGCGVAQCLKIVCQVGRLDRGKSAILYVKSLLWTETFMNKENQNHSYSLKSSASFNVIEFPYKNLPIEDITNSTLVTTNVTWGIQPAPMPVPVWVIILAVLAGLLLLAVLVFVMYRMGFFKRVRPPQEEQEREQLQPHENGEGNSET
T1 sequence (P05106 27-788): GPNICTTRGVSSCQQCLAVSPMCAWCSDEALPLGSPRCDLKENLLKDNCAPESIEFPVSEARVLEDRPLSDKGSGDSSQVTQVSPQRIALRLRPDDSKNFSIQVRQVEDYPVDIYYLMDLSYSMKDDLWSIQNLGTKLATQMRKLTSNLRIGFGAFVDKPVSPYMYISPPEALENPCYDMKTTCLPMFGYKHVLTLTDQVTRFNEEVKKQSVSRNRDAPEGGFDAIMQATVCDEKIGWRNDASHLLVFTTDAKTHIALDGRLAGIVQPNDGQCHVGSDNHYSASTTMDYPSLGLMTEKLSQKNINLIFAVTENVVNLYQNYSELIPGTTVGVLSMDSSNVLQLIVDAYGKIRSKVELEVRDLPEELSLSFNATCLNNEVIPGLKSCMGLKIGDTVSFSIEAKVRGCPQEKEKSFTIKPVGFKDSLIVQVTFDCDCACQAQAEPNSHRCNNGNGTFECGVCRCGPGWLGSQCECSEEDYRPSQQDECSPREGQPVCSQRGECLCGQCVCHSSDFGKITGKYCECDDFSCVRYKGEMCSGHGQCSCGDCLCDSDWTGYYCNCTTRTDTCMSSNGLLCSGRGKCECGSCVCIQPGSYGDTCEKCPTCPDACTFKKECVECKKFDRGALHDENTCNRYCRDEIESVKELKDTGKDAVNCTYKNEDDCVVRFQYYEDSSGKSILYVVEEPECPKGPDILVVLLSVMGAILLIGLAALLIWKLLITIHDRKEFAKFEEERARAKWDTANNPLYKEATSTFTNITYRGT

IC50 (integrin αvβ3; SW480 cells expressing human integrin β3, compounds at 0.001-1 μM, read-out: 50% inhibition concentration (IC50 value) for cell adhesion inhibitory activity): ≤ 1 nM
cell adhesion inhibitory effect (in words) (integrin αvβ3; SW480 cells expressing integrin αvβ3): high
Compound: COc1cc(C(=O)NC[C@H](NS(=O)(=O)c2ccccc2)C(=O)O)ccc1N1CCC(NC2=NCCCN2)CC1 [CP4715, (S)-3-(3-methoxy-4-(4-((1,4,5,6-tetrahydropyrimidin-2-yl)amino)piperidin-1-yl)benzamido)-2-(phenylsulfonamido)propanoic acid]
% Change from baseline in the number of scratchings (mean ± standard error) ([1]; 53.7 μmol/kg i.p., single, 60 minutes after administration vs before administration): −68.0 ± 14.0%
grade of effect on % change from the baseline in the number of scratchings ([1]; single i.p., 53.7 μmol/kg (GLPG-0187 5.37 μmol/kg), paired t-test): ++ (mean change from the baseline was −65% or more at a P-value of less than 0.01)
antagonistic effect on GP IIb/IIIa receptor [2]: antagonistic effect
